Laboratory results taken from paper PMC9492458, “Development and structure–activity relationships of tanshinones as selective 11β-hydroxysteroid dehydrogenase 1 inhibitors” (Natural Products and Bioprospecting, 2022).
Where two headings read alike, the source gives them in different places.

Assays:
[1] = target: T1, 11β-HSD1 in 3T3-L1 adipocytes (Mus musculus, UniProt P50172); assay: 11β-HSD1 activity assay in 3T3-L1 adipocytes; assay type: cell-based; conditions: for IC50: 1 h incubation, averages of three determinations, read-out: IC50, cellular assay on 3T3-L1 adipocyte against 11β-HSD1; for Emax: inhibition relative to MK544 10 μM, read-out: Max effect
T1 construct: endogenous in cells; host or cells: 3T3-L1 adipocytes
Method: 11β-HSD1 enzyme inhibition in adipose tissue is believed to be important for achieving efficacy in vivo [11, 12]. Derivatives with potent enzymatic potency and excellent selectivity profiles (13, 14, 17, 28a, 28b and 30) were also evaluated their 11β-HSD1 inhibition in 3T3-L1 adipocyte.
The reductase activity of 11β-HSD1 in intact 3T3-L1 adipocytes was determined by measuring the rate of conversion of cortisone to cortisol. To explore the effect of compounds on 11β-HSD1 reductase activity, 3T3-L1 adipocytes were incubated for 1 h at 37 °C in serum-free DMEM containing 6.25 nmol/L [1,2-(N)^3H]-cortisone and different concentrations of compounds, according to experimental design. 0.1% DMSO was set as the vehicle control and MK544 was set as the positive control. At the end of the incubation, 80 μL of medium was pipetted into a transparent bottom 96-well plate, and 35 μL of SuperBlock Blocking Buffer containing 10 g/L of protein A-coated yttrium silicate beads and 3 mg/L of anti-cortisol antibodies was added. The mixtures were shaken in the dark for 2 h and then used for liquid scintillation readings. The inhibition effect was calculated by the following equation: Inhibition%=Data(compound)-Data(DMSO Vehicle)/Data(MK54410μM)-Data(DMSO Vehicle)×100%.

11β-HSD1 in liver = target: T2, 11β-HSD1 in liver (Mus musculus, UniProt P50172); assay: Measurement of 11β-HSD1 activity in liver of ob/ob mice; assay type: in vivo; conditions: single oral dose 300 mg/kg
T2 construct: from tissue
Method: After single oral administration of 1, 17 or 30 at dose of 300 mg/kg to ob/ob mice, the enzymatic activity of 11β-HSD1 in liver was measured.
B6.V-Lepob/Lepob mice (Jackson Laboratory, Bar Harbor, ME, USA) were bred at the Shanghai Institute of Materia Medica, Chinese Academy of Sciences. All mice were housed in a specific, pathogen-free class laboratory and were maintained at a controlled room temperature (22–24 °C) under a 12 h light–dark cycle with free access to water and food. The animal experiments were conducted in accordance with the guides by the Institutional Animal Care and Utilization Committee (IACUC) of Shanghai Institute of Materia Medica (SIMM), Chinese Academy of Sciences (CAS). The protocol was approved by the IACUC, SIMM, CAS with accreditation number of 2017-08-LY-67. All animal experiment complied with the ARRIVE guidelines for the care and use of laboratory animals.
Ob/ob mice (10 weeks’ old) were given a single dose of 1, 17, 30 (300 mg/kg) or vehicle (0.5% carboxymethyl cellulose, CMC), p.o. After 4 h and 8 h, animals were euthanized with an i.p injection of sodium pentobarbital (60 mg/kg) and the livers were isolated and stored as described above. The liver tissue was homogenized (1 mg/mL) in cold homogenization buffer, and […] of liver homogenates was used to analyze the 11β-HSD1 activity by SPA, as previously described.

mouse 11β-HSD1 = mouse 11β-HSD1 (Mus musculus, UniProt P50172); assay: scintillation proximity assay (SPA), microsomes of HEK-293 cells transfected with mouse 11β-HSD1; conditions: for Mouse SI (selectivity index): SI = IC50(HSD2)/IC50(HSD1); for inhibition at 1 µM: read-out: Inhibitory ratio m-HSD1, at 1.0 μM, averages of three determinations
Method: (§1) With diverse tanshinones in hand, inhibition of human and mouse 11β-HSD1 enzymatic potency was measured by scintillation proximity assay (SPA) using microsomes containing 11β-HSD1 [46, 47]. Results are reported as the average of two or three independent experiments at each concentration.
(§2) The SPA was used to screen for inhibitors of 11β-HSDs [48], with the microsome fractions prepared from the HEK-293 cells stably transfected with either human or mouse 11β-HSD1 or 11β-HSD2 as the enzyme source. […] Reactions were initiated by the addition of 11β-HSD1 or 11β-HSD2, enzyme. […] The plates were incubated under plastic film on an orbital shaker for 120 min at room temperature before counting. The amount of [^3H]-cortisol generated in 11β-HSD1 enzyme reaction or remaining from the 11β-HSD2 enzyme reaction was captured by the beads and determined in a microplate liquid scintillation counter. The % inhibition was calculated relative to a non-inhibited control. Data were obtained from two or three independent experiments. IC50 values were calculated from concentration–response curves by a non-linear regression analysis using Prism Version 6.

mouse 11β-HSD2 = target: T3, mouse 11β-HSD2 (Mus musculus, UniProt P51661); assay: scintillation proximity assay (SPA), microsomes of HEK-293 cells transfected with mouse 11β-HSD2
T3 sequence (P51661 1-386): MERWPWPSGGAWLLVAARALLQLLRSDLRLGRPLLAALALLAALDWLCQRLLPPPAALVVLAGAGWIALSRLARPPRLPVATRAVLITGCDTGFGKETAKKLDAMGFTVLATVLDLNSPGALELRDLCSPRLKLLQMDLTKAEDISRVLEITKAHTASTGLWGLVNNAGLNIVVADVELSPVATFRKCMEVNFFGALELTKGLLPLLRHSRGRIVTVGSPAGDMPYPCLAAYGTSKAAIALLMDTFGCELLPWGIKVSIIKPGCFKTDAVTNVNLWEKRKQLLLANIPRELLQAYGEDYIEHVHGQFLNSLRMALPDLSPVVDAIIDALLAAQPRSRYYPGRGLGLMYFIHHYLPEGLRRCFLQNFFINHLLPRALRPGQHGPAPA
Method: as §1, §2

human 11β-HSD1 = human 11β-HSD1 (Homo sapiens, UniProt P28845); assay: scintillation proximity assay (SPA), microsomes of HEK-293 cells transfected with human 11β-HSD1; conditions: for inhibition at 1 µM: read-out: Inhibitory ratio h-HSD1, at 1.0 μM, averages of three determinations; for Human SI (selectivity index): SI = IC50(HSD2)/IC50(HSD1)
Method: as §1, §2

human 11β-HSD2 = target: T4, human 11β-HSD2 (Homo sapiens, UniProt P80365); assay: scintillation proximity assay (SPA), microsomes of HEK-293 cells transfected with human 11β-HSD2
T4 sequence (P80365 1-405): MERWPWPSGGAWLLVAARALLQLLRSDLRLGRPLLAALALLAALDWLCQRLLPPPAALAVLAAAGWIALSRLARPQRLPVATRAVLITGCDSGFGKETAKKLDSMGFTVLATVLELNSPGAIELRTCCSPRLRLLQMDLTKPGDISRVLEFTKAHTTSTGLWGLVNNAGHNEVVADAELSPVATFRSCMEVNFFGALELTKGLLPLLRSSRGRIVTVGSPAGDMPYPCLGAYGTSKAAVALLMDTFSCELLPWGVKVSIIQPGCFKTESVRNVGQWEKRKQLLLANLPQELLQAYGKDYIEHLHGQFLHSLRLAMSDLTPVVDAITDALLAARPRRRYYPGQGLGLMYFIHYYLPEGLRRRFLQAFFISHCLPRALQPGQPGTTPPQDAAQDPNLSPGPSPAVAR
Method: as §1, §2

Chain of human 11β-HSD1 (P28845 whole entry): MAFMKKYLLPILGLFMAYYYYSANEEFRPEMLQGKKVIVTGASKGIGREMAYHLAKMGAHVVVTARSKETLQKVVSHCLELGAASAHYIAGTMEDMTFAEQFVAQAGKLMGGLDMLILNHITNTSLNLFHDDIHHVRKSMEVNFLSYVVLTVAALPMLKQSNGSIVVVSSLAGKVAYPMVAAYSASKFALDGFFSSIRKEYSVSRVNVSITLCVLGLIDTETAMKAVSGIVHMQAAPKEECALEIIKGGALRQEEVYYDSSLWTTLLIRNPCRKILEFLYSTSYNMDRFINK
T1 sequence (P50172 whole entry): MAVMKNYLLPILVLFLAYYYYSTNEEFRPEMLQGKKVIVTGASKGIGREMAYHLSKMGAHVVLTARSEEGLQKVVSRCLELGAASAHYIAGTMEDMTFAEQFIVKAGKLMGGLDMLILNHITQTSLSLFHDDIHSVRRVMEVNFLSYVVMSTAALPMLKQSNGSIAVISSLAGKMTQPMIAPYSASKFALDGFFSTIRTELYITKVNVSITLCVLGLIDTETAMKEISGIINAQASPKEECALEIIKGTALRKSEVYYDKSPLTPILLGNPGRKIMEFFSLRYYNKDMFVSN
T2 sequence (P50172 whole entry): as above
Chain of mouse 11β-HSD1 (P50172 whole entry): as above

Row | IC50 [1] [µM] | Emax [1] [%] | decrease in 11β-HSD1 activity in liver (11β-HSD1 in liver; 8 h after treatment) [%] | IC50 (mouse 11β-HSD1) [µM] | Mouse SI (selectivity index) (mouse 11β-HSD1; Table 3) | inhibition at 1 µM (mouse 11β-HSD1) [%] | IC50 (mouse 11β-HSD2) [µM] | IC50 (human 11β-HSD1) [µM] | inhibition at 1 µM (human 11β-HSD1) [%] | Human SI (selectivity index) (human 11β-HSD1; Table 3) | IC50 (human 11β-HSD2) [µM] | decrease in 11β-HSD1 activity in liver (11β-HSD1 in liver; 4 h after treatment) [%] | Mouse SI (selectivity index) (mouse 11β-HSD1; Table 1) | IC50 (mouse 11β-HSD2; read-out: Mouse (IC50) 11β-HSD2, Table 3, averages of two determinations) [µM] | Human SI (selectivity index) (human 11β-HSD1; Table 1) | Compound
1 | 4.4 ± 0.1 | 105 | 41.2 | 0.0222 ± 0.0006 | > 4510.6 | 98.6 ± 0.7 | > 100 | 0.0578 ± 0.013 | 82 ± 2.7 | – | – | – | – | – | – | CC1(C)CCCc2c1ccc1c2C(=O)C(=O)c2c(CO)coc2-1 [Compound 30]
2 | 1.4 ± 0.1 | 90 ± 0.4 | 38.5 | 0.0069 ± 0.0007 | > 14,492.7 | 84.6 ± 1.4 | > 100 | 0.21 | 63.5 ± 3.2 | 28.0 | 5.9 ± 2.3 | – | – | – | – | Cc1coc2c1C(=O)C(=O)c1c-2ccc2c1CCC(=O)C2(C)C [Compound 17]
3 | 2 ± 0.6 | 104 ± 1 | 48.4 | 0.0322 ± 0.0025 | > 31,055.9 | 89.6 ± 0.6 | > 1000 | 0.0353 ± 0.0154 | 76.6 ± 1.3 | – | 135 ± 72.5 | 32.9 | > 31,250 | > 1000 | 3838 | Cc1coc2c1C(=O)C(=O)c1c-2ccc2c1CCCC2(C)C [Compound 1, tanshinone IIA]
4 | 3.9 ± 0.1 | 104 ± 0.9 | – | 0.0793 ± 0.0162 | > 1261.0 | 79.2 ± 2.2 | > 100 | 0.149 ± 0.0339 | 74.3 ± 2.1 | 27.5 | 4.1 ± 0.7 | – | – | – | – | Cc1c(COCO)oc2c1C(=O)C(=O)c1c-2ccc2c1CCCC2(C)C [Compound 28a]
5 | > 4 | 104 ± 1.2 | – | 0.0539 ± 0.0093 | > 1855.3 | 85.9 ± 1.6 | > 100 | 0.3 | 57.2 ± 2 | 19.6 | 5.9 ± 3.4 | – | – | – | – | Cc1coc2c1C(=O)C(=O)c1c-2ccc2c1C=CC(=O)C2(C)C [Compound 14]
6 | 3.1 ± 0.6 | 100 ± 4 | – | 0.0702 ± 0.0134 | > 1426.5 | 88.5 ± 0.1 | > 100 | 0.0998 ± 0.0105 | 75.3 ± 0.8 | 62.9 | 6.3 ± 0.9 | – | – | – | – | Cc1c(CO)oc2c1C(=O)C(=O)c1c-2ccc2c1CCCC2(C)C [Compound 28b]
7 | 7.9 | 102 ± 0.3 | – | 0.0593 ± 0.0095 | > 1689.2 | 92.3 ± 2.7 | > 100 | 0.27 | 67.4 ± 1.6 | 9.9 | 2.7 ± 1 | – | – | – | – | Cc1coc2c1C(=O)C(=O)c1c-2ccc2c1C=CCC2(C)C [Compound 13]
